For one test, the target named is human TLR7 (Homo sapiens (Human), UniProt Q9NYK1). As to the kind of experiment: TLR7 inhibition reporter assay (HEK-Blue SEAP). The class given is cell-based. The note with it: HEK-Blue cells overexpressing human TLR7, gardiquimod 7.5 μM stimulation. A general note: A reporter such as luciferase makes a cellular process visible.
For the next test, the target named is human TLR8 (Homo sapiens (Human), UniProt Q9NR97). As to the kind of experiment: TLR8 inhibition reporter assay (HEK-Blue SEAP).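 Note: SEAP driven by IFN-β minimal promoter with five NF-κB and AP-1 sites, compounds tested 0.05 nM to 50 µM, 22 h incubation, inhibition relative to agonist plus DMSO wells.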
For a further test, the target named is human TLR9 (Homo sapiens (Human), UniProt Q9NR96). Nature of the test: TLR9 inhibition reporter assay (HEK-Blue SEAP).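 Note: SEAP driven by IFN-β minimal promoter carrying five NF-κB and AP-1 sites, 22 h at 37 °C, compounds 0.05 nM–50 µM, inhibition scaled between agonist-plus-DMSO and reference-inhibitor wells.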
Setting [1] is: read-out: TLR8 IC50; HEK-Blue cells overexpressing human TLR8, R848 15.9 μM stimulation, SEAP reporter.
The mark [2] stands for this setting: read-out: TLR9 IC50; HEK-Blue cells overexpressing human TLR9, ODN2006 5 nM stimulation, SEAP reporter.

IC50 data for 15 compounds are collected here from US11912703B2, “6-azaindole compounds” (BRISTOL-MYERS SQUIBB COMPANY, priority 2017, dated 2024).

The term IC50 denotes the concentration needed to halve the response being measured.

Read-outs that look alike come from different tables or passages of the source.

Chain of human TLR9 (Q9NR96 26-1032): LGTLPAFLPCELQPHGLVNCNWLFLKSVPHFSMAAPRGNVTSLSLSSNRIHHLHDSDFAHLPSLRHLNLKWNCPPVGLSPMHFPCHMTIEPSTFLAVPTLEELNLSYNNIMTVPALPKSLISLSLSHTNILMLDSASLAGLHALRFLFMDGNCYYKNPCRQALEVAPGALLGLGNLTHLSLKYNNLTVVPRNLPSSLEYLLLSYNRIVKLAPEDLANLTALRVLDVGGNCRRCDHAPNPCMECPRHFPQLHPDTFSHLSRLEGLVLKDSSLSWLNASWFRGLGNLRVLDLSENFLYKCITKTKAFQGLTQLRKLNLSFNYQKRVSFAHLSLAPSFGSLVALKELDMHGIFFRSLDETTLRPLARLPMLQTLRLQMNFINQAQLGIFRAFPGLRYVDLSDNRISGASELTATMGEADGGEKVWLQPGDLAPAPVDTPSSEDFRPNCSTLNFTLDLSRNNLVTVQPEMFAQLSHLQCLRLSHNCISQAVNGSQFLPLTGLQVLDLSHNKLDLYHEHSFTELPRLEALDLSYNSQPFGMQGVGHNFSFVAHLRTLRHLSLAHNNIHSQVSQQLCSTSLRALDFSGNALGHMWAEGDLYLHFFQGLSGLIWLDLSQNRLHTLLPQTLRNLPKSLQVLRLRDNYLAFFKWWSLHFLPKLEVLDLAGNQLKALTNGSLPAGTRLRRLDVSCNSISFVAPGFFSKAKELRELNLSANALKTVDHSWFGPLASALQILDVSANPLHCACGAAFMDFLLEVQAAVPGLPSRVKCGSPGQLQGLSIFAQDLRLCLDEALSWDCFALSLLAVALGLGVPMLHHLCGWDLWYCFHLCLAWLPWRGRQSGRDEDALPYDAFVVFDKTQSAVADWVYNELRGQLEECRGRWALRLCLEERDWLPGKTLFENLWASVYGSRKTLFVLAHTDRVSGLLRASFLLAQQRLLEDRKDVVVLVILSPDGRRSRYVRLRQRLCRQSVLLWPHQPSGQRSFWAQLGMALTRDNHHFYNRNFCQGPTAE
Chain of human TLR8 (Q9NR97 27-1041): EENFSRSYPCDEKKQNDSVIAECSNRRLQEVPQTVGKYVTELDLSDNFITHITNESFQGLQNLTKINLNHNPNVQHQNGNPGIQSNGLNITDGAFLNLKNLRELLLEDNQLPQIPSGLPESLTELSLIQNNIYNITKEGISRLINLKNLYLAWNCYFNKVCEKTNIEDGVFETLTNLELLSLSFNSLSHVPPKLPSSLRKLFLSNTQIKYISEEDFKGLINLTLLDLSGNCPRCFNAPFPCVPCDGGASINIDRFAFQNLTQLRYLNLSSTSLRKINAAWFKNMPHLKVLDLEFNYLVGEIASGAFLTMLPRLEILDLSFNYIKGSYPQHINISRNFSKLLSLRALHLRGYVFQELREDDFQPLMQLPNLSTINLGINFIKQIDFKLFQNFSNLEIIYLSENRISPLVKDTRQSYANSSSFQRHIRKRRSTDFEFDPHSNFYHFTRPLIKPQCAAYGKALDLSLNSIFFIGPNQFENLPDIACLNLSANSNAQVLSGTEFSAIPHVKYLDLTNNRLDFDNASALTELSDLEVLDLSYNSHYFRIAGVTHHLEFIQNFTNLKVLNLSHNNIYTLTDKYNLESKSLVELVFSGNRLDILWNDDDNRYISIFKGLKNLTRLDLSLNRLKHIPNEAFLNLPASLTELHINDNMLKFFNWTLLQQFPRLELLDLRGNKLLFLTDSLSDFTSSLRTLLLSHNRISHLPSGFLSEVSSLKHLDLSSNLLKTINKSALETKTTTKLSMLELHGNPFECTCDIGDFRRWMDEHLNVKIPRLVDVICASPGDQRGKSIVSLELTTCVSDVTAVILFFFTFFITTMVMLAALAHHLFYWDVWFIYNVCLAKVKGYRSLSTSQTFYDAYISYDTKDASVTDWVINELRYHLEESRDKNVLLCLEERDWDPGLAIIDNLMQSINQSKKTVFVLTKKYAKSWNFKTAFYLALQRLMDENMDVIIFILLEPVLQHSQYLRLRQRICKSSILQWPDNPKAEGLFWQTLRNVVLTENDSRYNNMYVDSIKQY
Chain of human TLR7 (Q9NYK1 27-1049): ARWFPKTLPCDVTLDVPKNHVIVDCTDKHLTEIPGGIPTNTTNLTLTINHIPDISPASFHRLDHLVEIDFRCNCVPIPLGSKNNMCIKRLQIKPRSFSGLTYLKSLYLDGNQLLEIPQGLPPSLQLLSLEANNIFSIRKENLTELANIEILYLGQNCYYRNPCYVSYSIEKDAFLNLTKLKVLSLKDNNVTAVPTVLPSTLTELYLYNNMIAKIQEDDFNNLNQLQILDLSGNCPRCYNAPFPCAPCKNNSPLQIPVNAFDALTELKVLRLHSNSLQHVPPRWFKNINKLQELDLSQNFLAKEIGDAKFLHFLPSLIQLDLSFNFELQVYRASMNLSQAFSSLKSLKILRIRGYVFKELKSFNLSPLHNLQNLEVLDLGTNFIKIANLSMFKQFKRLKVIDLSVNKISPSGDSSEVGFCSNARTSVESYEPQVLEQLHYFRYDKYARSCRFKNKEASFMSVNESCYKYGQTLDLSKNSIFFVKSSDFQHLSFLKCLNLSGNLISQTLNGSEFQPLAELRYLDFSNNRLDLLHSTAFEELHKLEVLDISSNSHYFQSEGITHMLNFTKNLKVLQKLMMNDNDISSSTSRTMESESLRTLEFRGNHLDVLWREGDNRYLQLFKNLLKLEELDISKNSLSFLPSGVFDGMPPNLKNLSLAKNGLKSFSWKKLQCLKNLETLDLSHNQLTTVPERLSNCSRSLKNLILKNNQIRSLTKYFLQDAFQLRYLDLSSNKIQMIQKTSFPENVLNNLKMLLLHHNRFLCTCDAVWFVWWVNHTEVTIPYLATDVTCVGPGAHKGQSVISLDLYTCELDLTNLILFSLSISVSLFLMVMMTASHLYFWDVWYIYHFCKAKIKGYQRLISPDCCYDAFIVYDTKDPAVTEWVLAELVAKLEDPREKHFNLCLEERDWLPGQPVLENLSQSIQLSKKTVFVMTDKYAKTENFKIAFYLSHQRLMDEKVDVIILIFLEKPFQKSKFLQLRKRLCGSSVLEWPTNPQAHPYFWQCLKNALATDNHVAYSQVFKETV
Procedure for human TLR7: HEK-Blue™-cells (Invivogen) overexpressing human TLR7, TLR8 or TLR9 receptors were used for screening inhibitors of these receptors using an inducible SEAP (secreted embryonic alkaline phosphatase) reporter gene under the control of the IFN-β minimal promoter fused to five NF-κB and AP-1-binding sites. Briefly, cells are seeded into Greiner 384 well plates (15000 cells per well for TLR7, 20,000 for TLR8 and 25,000 for TLR9) and then treated with test compounds in DMSO to yield a final dose response concentration range of 0.05 nM-50 μM. After a 30 minute compound pre-treatment at room temperature, the cells are then stimulated with a TLR7 ligand (gardiquimod at a final concentration of 7.5 μM), TLR8 ligand (R848 at a final concentration of 15.9 μM) or TLR9 ligand (ODN2006 at a final concentration of 5 nM) to activate NF-κB and AP-1 which induce the production of SEAP. After a 22 hour incubation at 37° C., 500 CO2, SEAP levels are determined with the addition of HEK-Blue™ Detection reagent (Invivogen), a cell culture medium that allows for detection of SEAP, according to manufacturer's specifications.

As for `Cc1c(-c2[nH]c3cnc(C4CCC(NCC(C)(C)O)CC4)c(C)c3c2C(C)C)cn2ncnc2c1C` (stereo not drawn) [Example 92], the IC50 amounted to 34 nM at human TLR7, 32 nM at human TLR8 (setting [1]) and 548 nM at human TLR9 (setting [2]).

`Cc1cc(-c2[nH]c3cnc(N4CCC(N5CC6(COC6)C5)CC4)c(F)c3c2C(C)C)cn2ncnc12` [Example 44]: the IC50 on human TLR7 stood at 0.63 nM; at human TLR8 (setting [1]) it was 0.36 nM; at human TLR9 (setting [2]) it was 2770 nM.

With `COc1cc(-c2[nH]c3cnc(N4CC5(C4)CN(C4CCOCC4)C5)c(F)c3c2C(C)C)cn2ncnc12` [Example 370], the IC50 on human TLR7 was determined as 19 nM; at human TLR8 (setting [1]) it was 174 nM; at human TLR9 (setting [2]), 10300 nM.

As for `Cc1c(-c2[nH]c3cnc(C4CCC(NC5COC5)CC4)cc3c2C(C)C)cn2ncnc2c1C` (stereo not drawn) [Example 346], the figures for the IC50 against human TLR7, on human TLR8 (setting [1]) and on human TLR9 (setting [2]) were 3.3 nM, 14 nM and 750 nM, respectively.

As to `COc1cc(-c2[nH]c3cnc(C4CCC(N(CC#N)C5COC5)CC4)c(F)c3c2C(C)C)cn2ncnc12` (stereo not drawn) [Example 114], the values for the IC50 on human TLR7, on human TLR8 (setting [1]) and at human TLR9 (setting [2]) were 4.8 nM, 6.6 nM and 17400 nM, respectively.

For the compound `Cc1c(N2CCC(N3CCNC(=O)C3)CC2)ncc2[nH]c(-c3cc(C)c4ncnn4c3)c(C(C)C)c12` [Example 284], the IC50 worked out at 8.3 nM against human TLR7, 14 nM at human TLR8 (setting [1]) and 23500 nM on human TLR9 (setting [2]).

Take `Cc1c(-c2[nH]c3cnc(N4CCC(N5CCC5)CC4)c(F)c3c2C(C)C)cn2ncnc2c1C` [Example 51]: the IC50 on human TLR7 came out at 0.74 nM; at human TLR8 (setting [1]), 0.58 nM; at human TLR9 (setting [2]), 2770 nM.

On to `Cc1c(-c2[nH]c3cnc(N4CCN(CC(=O)N(C)C)CC4)c(C)c3c2C(C)C)cn2ncnc2c1C` [Example 352, 2-(4-(2-(7,8-dimethyl-[1,2,4]triazolo[1,5-a]pyridin-6-yl)-3-isopropyl-4-methyl-1H-pyrrolo[2,3-c]pyridin-5-yl)piperazin-1-yl)-N,N-dimethylacetamide], for which the values for the IC50 against human TLR7, at human TLR8 (setting [1]) and at human TLR9 (setting [2]) were 14 nM, 0.73 nM and 19800 nM, respectively.

Turning to `COc1cc(-c2[nH]c3cnc(N4CCN(CC(N)=O)CC4)cc3c2C(C)C)cn2ncnc12` [Example 319], the IC50 at human TLR7 was determined as 12 nM; on human TLR8 (setting [1]) it was 3.7 nM; on human TLR9 (setting [2]) it was 14400 nM.

Consider `CNC(=O)CN1CCC(c2ncc3[nH]c(-c4cc(OC)c5ncnn5c4)c(C(C)C)c3c2C)CC1` [Example 2, 2-(4-(3-isopropyl-2-(8-methoxy-[1,2,4]triazolo[1,5-a]pyridin-6-yl)-4-methyl-1H-pyrrolo[2,3-c]pyridin-5-yl)piperidin-1-yl)-N-methylacetamide], for which the IC50 against human TLR7 worked out at 1.6 nM; at human TLR8 (setting [1]), 14 nM; at human TLR9 (setting [2]), 398 nM.

Take `Cc1cc(-c2[nH]c3cnc(C4CCN(CCS(C)(=O)=O)CC4)c(F)c3c2C(C)C)cn2ncnc12` [Example 149]: the IC50 was determined as 3.6 nM against human TLR7, 5.1 nM at human TLR8 (setting [1]) and 13100 nM on human TLR9 (setting [2]).

Turning to `Cc1cc(-c2[nH]c3cnc(N4CCN(CC(=O)N(C)C)CC4)cc3c2C(C)C)cn2ncnc12` [Example 297], the IC50 on human TLR7 is greater than 3120 nM; at human TLR8 (setting [1]) it was greater than 3120 nM; on human TLR9 (setting [2]) it was 17900 nM.

As to `CCN(C)C1CCC(c2cc3c(C(C)C)c(-c4cc(OC)c5ncnn5c4)[nH]c3cn2)CC1` (stereo not drawn) [Example 316], the IC50 against human TLR7 was 9.5 nM; at human TLR8 (setting [1]), 33 nM; at human TLR9 (setting [2]), 80 nM.

Consider `COc1cc(-c2[nH]c3cnc(N4CCN(C5CCCOC5)CC4)c(F)c3c2C(C)C)cn2ncnc12` (single isomer, unassigned) [Example 387], for which the results for the IC50 at human TLR7, on human TLR8 (setting [1]) and at human TLR9 (setting [2]) were 33 nM, 13 nM and greater than 50000 nM, respectively.

Turning to `Cc1c(-c2[nH]c3cnc(N4CCN(CC(=O)N5CCOCC5)C[C@H]4C)c(F)c3c2C(C)C)cn2ncnc2c1C` [Example 469], the IC50 against human TLR7 amounted to 13 nM; on human TLR8 (read-out: TLR8 IC50; HEK-Blue cells overexpressing human TLR8; R848 15.9 μM stimulation; SEAP reporter), 3.5 nM; at human TLR9 (read-out: TLR9 IC50; HEK-Blue cells overexpressing human TLR9; ODN2006 5 nM stimulation; SEAP reporter), 47900 nM.
